{"source": "paper PMC5113906", "about": "“Ligand autoradiographical quantification of histamine H3 receptor in human dementia with Lewy bodies” (Pharmacological Research, 2016)", "target": "T1, histamine H3 receptor (hH3R 445) (Homo sapiens, UniProt Q9Y5N1)", "T1 construct": "gene HRH3; hH3 445 isoform (also hH3 365), transiently expressed in HEK293 cells", "T1 sequence (Q9Y5N1 whole entry, canonical isoform)": "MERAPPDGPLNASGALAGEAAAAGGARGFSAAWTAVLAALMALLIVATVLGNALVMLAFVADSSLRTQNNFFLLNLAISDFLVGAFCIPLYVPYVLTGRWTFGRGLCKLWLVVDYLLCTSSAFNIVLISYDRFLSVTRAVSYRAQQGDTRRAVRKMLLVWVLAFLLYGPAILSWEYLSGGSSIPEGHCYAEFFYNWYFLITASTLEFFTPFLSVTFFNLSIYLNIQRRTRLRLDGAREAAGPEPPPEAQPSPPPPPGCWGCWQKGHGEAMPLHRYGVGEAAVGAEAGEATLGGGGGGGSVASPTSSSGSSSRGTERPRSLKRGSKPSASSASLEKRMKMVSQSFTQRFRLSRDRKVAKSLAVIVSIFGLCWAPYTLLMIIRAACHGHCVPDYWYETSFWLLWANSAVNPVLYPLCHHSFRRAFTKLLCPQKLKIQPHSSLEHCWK", "assay": "[3H]GSK189254 saturation radioligand binding; autoradiography on human brain sections"}
{"smiles": "CNC(=O)c1ccc(Oc2ccc3c(c2)CCN(C2CCC2)CC3)nc1", "note": "[GSK189254]", "values": [{"measurement": "Kd", "result": "0.16 ± 0.04", "unit": "nM"}]}
